Assay results from patent US8487115B2, “Hydantoin derivatives of cyano-substituted chrysanthemic acid esters and their use in pest control” (Sumitomo Chemical Company, Limited, priority 2010, dated 2013).

Each compound was assayed on German cockroaches (assay: Knockdown test on German cockroaches by spraying an oil solution). Details: 0.00156% (w/v) oil solution, 1.5 ml sprayed from 60 cm height, ten German cockroaches (5 male, 5 female), repeated twice.
Type: in vivo, German cockroach (Blattella germanica)
Description: Each of the present invention compounds (1) and (2) (0.00156 parts) produced in the aforementioned Production Examples was dissolved in 10 parts of dichloromethane and the resulting solution was mixed with 89.99844 parts of deodorized kerosine to prepare a 0.00156% (w/v) oil solution.
Ten German cockroaches (5 of each male and female) were released in a test container (measuring 8.75 cm in diameter and 7.5 cm in height, bottom area covered with a 16 mesh wire netting) coated with butter at an inner wall, and the container was disposed on the bottom of a test chamber (bottom surface measuring 46 cm and 46 cm, 70 cm in height).
From 60 cm in height above the container, 1.5 ml of the oil solution of each of the present invention compounds (1) and (2) was sprayed using a spray gun (spray pressure: 0.4 kg/cm^2). Thirty seconds after spraying, the container was removed from the test chamber. After a given time, the number of knockdowned cockroaches was counted and a knockdown rate was determined (repeated twice). The knockdown rate was calculated by the following equation. Knockdown rate (%)=(number of knockdowned cockroaches/number of test cockroaches)×100
For comparison, a test was carried out in the same manner as described above, except that 2,5-dioxo-3-(2-propynyl)imidazolidinylmethyl=(1R)-trans-3-(2-methyl-1-propenyl)-2,2-dimethylcyclopropane carboxylate (compound described in “Pestiside Science”, 1979, 10, p. 291, hereinafter referred to as the comparative compound (1)) represented by the following formula: […]

Which “Knockdown rate (%) after 2 minutes” value does the source give for C#CCN1CC(=O)N(COC(=O)[C@@H]2[C@@H](C=C(C)C)C2(C)C)C1=O [Comparative compound (1), 2,5-dioxo-3-(2-propynyl)imidazolidinylmethyl=(1R)-trans-3-(2-methyl-1-propenyl)-2,2-dimethylcyclopropane carboxylate] here?
Its value is 45%.

With C#CCN1CC(=O)N(COC(=O)[C@@H]2[C@@H](/C=C(\C#N)C=C)C2(C)C)C1=O [Present invention compound (1), 2,5-dioxo-3-(2-propynyl)imidazolidinylmethyl=(1R)-trans-3-[(1Z)-2-cyano-1,3-butadienyl]-2,2-dimethylcyclopropane carboxylate] as the compound, how does the “Knockdown rate (%) after 2 minutes” value read?
The value was 95%.

For C#CCN1CC(=O)N(COC(=O)[C@@H]2[C@@H](/C=C(C#N)/C=C/C)C2(C)C)C1=O [Present invention compound (2), 2,5-dioxo-3-(2-propynyl)imidazolidinylmethyl=(1R)-trans-3-[(1Z,3E)-2-cyano-1,3-pentadienyl]-2,2-dimethylcyclopropane carboxylate], which “Knockdown rate (%) after 2 minutes” value is on record?
Its value is 100%.

Which “Knockdown rate (%) after 2 minutes” value does the source give for C#CCN1CC(=O)N(COC(=O)[C@@H]2[C@@H](/C=C(\C)C=C)C2(C)C)C1=O [comparative compound (2), 2,5-dioxo-3-(2-propynyl)imidazolidinylmethyl=(1R)-trans-3-[(1E)-2-methyl-1-butadienyl)-2,2-dimethylcyclopropane carboxylate] here?
The value was 10%.
